Consider 15 compounds from US20090042773A1, “P13 kinase gamma inhibitors for the treatment of anaemia” (priority 2004, published 2009).

In test [1] the target is T1, Human recombinant GST-PI3Kδ (Homo sapiens, UniProt O00329).
T1 sequence (O00329 1-1044): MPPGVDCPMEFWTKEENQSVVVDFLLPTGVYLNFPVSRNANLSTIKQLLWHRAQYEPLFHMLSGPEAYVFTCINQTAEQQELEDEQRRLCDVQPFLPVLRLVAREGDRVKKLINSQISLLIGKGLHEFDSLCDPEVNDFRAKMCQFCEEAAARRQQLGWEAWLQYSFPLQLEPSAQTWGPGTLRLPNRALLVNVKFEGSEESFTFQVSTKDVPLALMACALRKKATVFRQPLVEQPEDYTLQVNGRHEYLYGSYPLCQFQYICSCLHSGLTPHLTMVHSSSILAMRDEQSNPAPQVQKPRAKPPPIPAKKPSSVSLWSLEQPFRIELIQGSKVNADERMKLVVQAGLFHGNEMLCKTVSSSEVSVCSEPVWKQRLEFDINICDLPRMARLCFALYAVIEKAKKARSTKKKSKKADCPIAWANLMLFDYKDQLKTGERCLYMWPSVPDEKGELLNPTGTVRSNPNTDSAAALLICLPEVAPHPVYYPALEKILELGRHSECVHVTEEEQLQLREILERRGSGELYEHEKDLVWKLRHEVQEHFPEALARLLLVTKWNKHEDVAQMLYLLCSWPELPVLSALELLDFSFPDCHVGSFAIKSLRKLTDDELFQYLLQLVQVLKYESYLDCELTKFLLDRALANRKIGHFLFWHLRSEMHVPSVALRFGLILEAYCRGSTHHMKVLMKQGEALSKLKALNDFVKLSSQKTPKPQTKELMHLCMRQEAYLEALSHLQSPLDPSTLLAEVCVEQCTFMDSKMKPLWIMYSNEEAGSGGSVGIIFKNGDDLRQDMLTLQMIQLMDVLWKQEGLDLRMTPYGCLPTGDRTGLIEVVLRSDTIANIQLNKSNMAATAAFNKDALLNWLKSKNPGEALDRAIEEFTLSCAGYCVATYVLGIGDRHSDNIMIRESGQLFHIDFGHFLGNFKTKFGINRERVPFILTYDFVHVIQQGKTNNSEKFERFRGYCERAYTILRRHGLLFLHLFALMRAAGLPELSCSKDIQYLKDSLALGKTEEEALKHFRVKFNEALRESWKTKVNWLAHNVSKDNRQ

The target of test [2] is Human recombinant GST-PI3Kα (Homo sapiens, UniProt P42336).
The target in test [3] is Human recombinant GST-PI3Kγ (Homo sapiens, UniProt P48736).
Another test relates to CD34+ progenitor cells. Particulars: Myklebust et al., Experimental Hematology 30 (2002), 990; cited from earlier work.
Test [4] has as its system K562 erythroleukemia cells. Particulars: Neri et al., Cellular Signalling 14 (2002) 21; cited from earlier work.
Test [5] concerns Mobilized CD34 positive stem cells. Put plainly: EPO induced erythrocyte formation (stem cell culture, colony assay, flow cytometry). In kind it is cell-based. The source says:
b) EPO Induced Erythrocyte Formation:
Investigation of the effect of PI3K inhibitors on the differentiation of red cell population, but also on the expansion of undifferentiated stem cells. Two different culture systems. A and B, were explored.
Culture System A (Containing No IL-3):
Differentiation of bone-marrow derived stem cells into the red cell line only. Semi-optimal systems in respect of the expansion of colony forming units, because of the lack of IL3 and other early acting growth factors.
The culture conditions are: IMDM-culture medium, 30% pre-selected fetal calf serum, 1% BSA, Glutamine 40 ug/ml iron saturated transferin, 10−6 Mol Mercaptoethanol, 10 ng/ml SCF, 100 U/ml IL6, 7 U Epo.
Culture System B (Containing IL-3):
Colony forming unit assay. […]
Colony forming units and the expression of Glycophorin A (marker) on the cell surface were used as markers for stem cell erythropoesis. Additionally, the presence of the cell surface antigen CD34 was also monitored to assess the differentiation status of the in vitro expanded cell lineage.
Relative expansion rate of GlyA-positive cells: At day 0, the stage of differentiation only few, if any cells, are GlyA positive. […] The expansion rate is calculated as the absolute number of GlyA-positive cells at the time point of interest divided by the absolute number of GlyA-positive cells in the starting material.
On the technique in general: Flow cytometry measures light scatter and fluorescence of single cells or particles in a stream.

The IC50 is the concentration that inhibits the measured activity by half.

Human recombinant GST-PI3Kγ, sequence (P48736 whole entry): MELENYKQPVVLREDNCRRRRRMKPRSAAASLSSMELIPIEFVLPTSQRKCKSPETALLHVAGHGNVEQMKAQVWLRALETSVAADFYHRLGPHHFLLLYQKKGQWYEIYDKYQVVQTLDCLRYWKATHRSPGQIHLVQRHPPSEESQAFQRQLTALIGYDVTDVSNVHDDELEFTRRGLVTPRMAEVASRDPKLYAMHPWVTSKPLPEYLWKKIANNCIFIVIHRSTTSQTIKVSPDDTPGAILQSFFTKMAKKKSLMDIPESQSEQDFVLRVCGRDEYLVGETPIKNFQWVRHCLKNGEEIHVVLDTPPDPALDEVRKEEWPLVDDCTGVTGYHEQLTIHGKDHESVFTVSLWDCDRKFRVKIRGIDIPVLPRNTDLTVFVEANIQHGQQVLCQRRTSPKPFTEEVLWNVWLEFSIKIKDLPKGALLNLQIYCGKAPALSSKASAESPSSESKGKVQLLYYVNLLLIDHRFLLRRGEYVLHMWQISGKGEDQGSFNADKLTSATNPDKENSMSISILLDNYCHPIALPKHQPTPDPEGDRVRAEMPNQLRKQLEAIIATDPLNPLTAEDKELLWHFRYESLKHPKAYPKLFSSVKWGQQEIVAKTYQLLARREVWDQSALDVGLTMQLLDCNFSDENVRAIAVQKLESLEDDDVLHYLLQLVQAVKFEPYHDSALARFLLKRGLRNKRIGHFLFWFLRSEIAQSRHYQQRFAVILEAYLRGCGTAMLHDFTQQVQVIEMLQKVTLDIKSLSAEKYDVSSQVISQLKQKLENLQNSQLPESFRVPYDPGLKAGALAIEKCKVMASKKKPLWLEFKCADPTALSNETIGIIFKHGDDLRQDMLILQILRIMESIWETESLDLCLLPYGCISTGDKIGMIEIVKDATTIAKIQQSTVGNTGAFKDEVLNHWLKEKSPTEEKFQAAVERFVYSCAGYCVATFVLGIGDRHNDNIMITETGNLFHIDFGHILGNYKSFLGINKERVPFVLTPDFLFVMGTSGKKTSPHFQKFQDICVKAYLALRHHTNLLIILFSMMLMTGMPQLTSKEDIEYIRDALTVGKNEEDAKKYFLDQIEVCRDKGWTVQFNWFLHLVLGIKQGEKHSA
Human recombinant GST-PI3Kα, sequence (P42336 whole entry): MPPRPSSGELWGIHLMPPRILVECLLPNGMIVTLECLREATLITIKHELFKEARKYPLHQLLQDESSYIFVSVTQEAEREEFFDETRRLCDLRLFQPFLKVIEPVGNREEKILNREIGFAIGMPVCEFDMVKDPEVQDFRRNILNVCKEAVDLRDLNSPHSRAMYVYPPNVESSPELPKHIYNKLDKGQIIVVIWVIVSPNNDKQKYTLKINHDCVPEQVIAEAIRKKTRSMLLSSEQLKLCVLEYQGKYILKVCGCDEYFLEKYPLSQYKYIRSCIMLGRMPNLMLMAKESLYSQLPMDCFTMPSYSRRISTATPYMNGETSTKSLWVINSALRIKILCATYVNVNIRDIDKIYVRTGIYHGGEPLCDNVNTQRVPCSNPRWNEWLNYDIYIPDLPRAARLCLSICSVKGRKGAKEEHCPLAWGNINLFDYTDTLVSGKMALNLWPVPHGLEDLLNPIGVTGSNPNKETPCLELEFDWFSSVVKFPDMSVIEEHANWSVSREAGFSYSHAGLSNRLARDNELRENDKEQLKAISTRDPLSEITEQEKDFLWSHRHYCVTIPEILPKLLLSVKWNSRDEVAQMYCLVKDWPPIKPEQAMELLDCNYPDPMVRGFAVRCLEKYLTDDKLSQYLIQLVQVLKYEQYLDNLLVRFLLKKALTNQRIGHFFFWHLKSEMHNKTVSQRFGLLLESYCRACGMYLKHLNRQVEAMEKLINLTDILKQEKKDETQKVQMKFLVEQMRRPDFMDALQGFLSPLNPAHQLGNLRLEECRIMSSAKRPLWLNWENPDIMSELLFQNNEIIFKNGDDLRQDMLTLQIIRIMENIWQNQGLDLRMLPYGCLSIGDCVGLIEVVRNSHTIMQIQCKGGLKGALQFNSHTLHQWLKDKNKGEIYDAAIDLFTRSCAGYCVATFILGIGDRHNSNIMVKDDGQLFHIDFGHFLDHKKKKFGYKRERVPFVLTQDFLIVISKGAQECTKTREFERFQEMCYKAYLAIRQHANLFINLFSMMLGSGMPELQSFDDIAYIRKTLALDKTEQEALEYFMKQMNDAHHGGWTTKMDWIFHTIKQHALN

As to `O=C1NC(=O)C(=Cc2ccc3c(c2)C(=O)c2ccccc2C3=O)S1` [Example 4, 5-[(9,10-dioxo-9,10-dihydroanthracen-2-yl)methylene]-1,3-thiazolidine-2,4-dione], the concentration for half-maximal inhibition (IC50) in test [1] was 4870 nM; in test [2], 1370 nM; in test [3], 316 nM.

Regarding `O=C(O)C=Cc1coc2ccc(C=C3SC(=O)NC3=O)cc12` [Example 9, 3-[5-(2,4-Dioxo-thiazolidin-5-ylidenemethyl)benzofuran-3-yl]-acrylic acid], the IC50 in test [1] stood at 2480 nM; in test [2] it was 32 nM; in test [3] it was 8 nM.

As for `O=C1NC(=O)C(=Cc2ccc3nonc3c2)S1` [Example 12, 5-Benzo[1,2,5]oxadiazol-5-ylmethylene-thiazolidine-2,4-ione], the results for the IC50 in test [1], in test [2] and in test [3] were 2730 nM, 370 nM and 35 nM, respectively.

For the compound `O=C1NC(=S)SC1=Cc1ccc2c(c1)OCO2` [Example 2, 5-(1,3-benzodioxol-5-ylmethylene)-2-thioxo-1,3-thiazolidin-4-one], the values for the IC50 in test [2] and in test [3] were 450 nM and 115 nM, respectively.

For the compound `Nc1noc2ccc(C=C3SC(=O)NC3=O)cc12` [Example 11, 5-(3-Amino-benzo[d]isoxazol-5-ylmethylene)thiazolidine-2,4-dione], the IC50 in test [1] is 10000 nM; in test [2], 460 nM; in test [3] it was 95 nM.

On to `O=C1NC(=O)C(=Cc2ccc3c(c2)OCCO3)S1` [Example 3, 5-(2,3-dihydro-1,4-benzodioxin-6-ylmethylene)-1,3-thiazolidine-2,4-dione], for which the IC50 in test [2] turned out to be 310 nM; in test [3] it was 50 nM.

On to `Cc1coc2ccc(C=C3SC(=O)NC3=O)cc12` [Example 8, 5-(3-Methyl-benzofuran-5-ylmethylene)-thiazolidine-2,4-dione], for which the results for the IC50 in test [1], in test [2] and in test [3] were 1970 nM, 135 nM and 30 nM, respectively.

Turning to `N#CN=C1NC(=O)C(=Cc2ccc3c(c2)OCO3)S1` [Example 14, 5-Benzo[1,3]dioxol-5-ylmethylene-4-oxo-thiazolidin-2-ylidene-cyanamide], the figures for the IC50 in test [1], in test [2] and in test [3] were 1170 nM, 231 nM and 21 nM, respectively.

As to `N=C1NC(=O)C(=Cc2ccc3c(c2)OCO3)S1` [Example 7, 5-(1,3-benzodioxol-5-ylmethylene)-2-imino-1,3-thiazolidin-4-one], the IC50 in test [3] is 710 nM.

Consider `CN1C(=O)COc2ccc(C=C3SC(=O)NC3=O)cc21` [Example 6, 5-[(4-methyl-3-oxo-3,4-dihydro-2H-1,4-benzoxazin-6-yl)methylene]-1,3-thiazolidine-2,4-dione], for which the values for the IC50 in test [2] and in test [3] were 170 nM and 30 nM, respectively.

On to `O=c1cc(N2CCOCC2)oc2c(-c3ccccc3)cccc12` [LY294002], for which the “effect on EPO induced erythropoiesis from CD34+ progenitor cells” value with CD34+ progenitor cells is given as “inhibit EPO induced erythropoiesis”.

`O=C1NC(=O)C(=Cc2ccc3c(c2)NCCO3)S1` [Example 10, 5-(3,4-Dihydro-2H-benzo[1,4]oxazin-6-ylmethylene)-thiazolidine-2,4-dione]: the 50% inhibitory concentration (IC50) was 2100 nM in test [2] and 590 nM in test [3].

Regarding `O=C1NC(=O)C(=Cc2ccc3cc(F)oc3c2)S1` [Example 13, 5-(2-Fluoro-benzofuran-6-ylmethylene)-thiazolidine-2,4-dione], the half-inhibitory concentration (IC50) in test [2] came to 1200 nM; in test [3], 290 nM.

On to `COC[C@H]1OC(=O)c2coc3c2[C@@]1(C)C1=C(C3=O)[C@@H]2CCC(=O)[C@@]2(C)C[C@H]1OC(C)=O` [Wortmannin, wortmannin], for which the “effect on EPO induced erythroid differentiation of K562 cells” value in test [4] was “prevents K562 erythroleukemia cells from EPO induced erythroid differentiation”.

With `O=C1NC(=O)C(=Cc2ccc3c(c2)OCO3)S1` [Example 1, 5-(1,3-benzodioxol-5-ylmethylene)-1,3-thiazolidine-2,4-dione], the results for the IC50 in test [1], in test [2] and in test [3] were 1700 nM, 250 nM and 70 nM, respectively. Moreover, in test [5] (in 13 days, compound added at day 1), the “increase of the expansion of nucleated cells over the control” value came out at 4 fold. Further, the cell proliferation entry in test [5] (same culture, 13 days) is recorded as “not enhanced”.
